According to ChEMBL document CHEMBL1141249, “Lucentamycins A-D, cytotoxic peptides from the marine-derived actinomycete Nocardiopsis lucentensis” (J Nat Prod, 2007):
pIC50: −log10 of the molar value. Calls of active or inactive are those of the source. No cut-off for these calls is given here.

Experiments:
HCT-116 [1] = assay: Cytotoxicity against human HCT116 cells upto 150 uM by MTS assay; type: functional, cell-based
HCT-116 [2] = assay: Cytotoxicity against human HCT116 cells by MTS assay; type: functional, cell-based

In the case of `C/C=C1\CN(C(=O)[C@H](CCCCNC(=N)N)NC(=O)C=C(C)C)[C@H](C(=O)N[C@@H](CC(C)C)C(=O)O)[C@@H]1C`, the Activity (HCT-116 [1]) was “inactive”.
With `C/C=C1\CN(C(=O)[C@H](CCCCNC(=N)N)NC(=O)CC(C)C)[C@H](C(=O)N[C@@H](CC(C)C)C(=O)O)[C@@H]1C` the Activity (HCT-116 [1]) was “inactive”.
Work on `C/C=C1\CN(C(=O)[C@H](CCCCNC(=N)N)NC(=O)c2ccccc2)[C@H](C(=O)N[C@@H](CC(C)C)C(=O)O)[C@@H]1C` [LUCENTAMYCIN A] yielded a pIC50 (HCT-116 [2]) of 6.70.
With `C/C=C1/CN(C(=O)[C@H](CCCCNC(=N)N)NC(=O)CC(C)C)[C@H](C(=O)N[C@@H](Cc2c[nH]c3ccccc23)C(=O)O)[C@@H]1C` [LUCENTAMYCIN B] the pIC50 (HCT-116 [2]) was 4.96.
